Patent US7626021B2, “Fused ring heterocycle kinase modulators” (SGX Pharmaceuticals, Inc., priority 2004, dated 2009)

The compounds below were run against T1, Abl T315I KD (unphosphorylated c-Abl T315I kinase domain) (Mus musculus, UniProt P00520, T315I) (assay: c-Abl T315I (unphosphorylated kinase domain) enzyme assay, PK/LDH coupled). Settings: mutant Abl kinase domain at zero phosphorylation state; read-out: Abl_T215l—0P IC50.
T1 construct: purified and unphosphorylated T315I Abl kinase domain; made in house; host or cells: E. coli BL21(DE3)
T1 sequence (P00520 242-493 T315I limits assumed): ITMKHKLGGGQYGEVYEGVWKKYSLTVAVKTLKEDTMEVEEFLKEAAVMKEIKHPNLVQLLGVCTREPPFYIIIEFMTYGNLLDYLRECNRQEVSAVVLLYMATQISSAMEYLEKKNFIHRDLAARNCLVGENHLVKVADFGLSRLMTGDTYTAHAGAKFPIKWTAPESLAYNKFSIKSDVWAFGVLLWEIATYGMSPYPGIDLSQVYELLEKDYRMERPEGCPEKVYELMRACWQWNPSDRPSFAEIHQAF
Type: biochemical
Source text: Although the first of these examples uses the kinase domain of a mutant form of Abl T315I (“Abl T315I KD”), the kinase assays may use various forms of mutant and wild type enzymes, including, for example, the entire protein, the kinase domain, or a portion thereof (e.g. Abl Y393F). The kinases used in the assays may also be of varying phosphorylation states. In the c-Abl example, a mutant kinase at a zero phosphorylation state was used.
c-Abl Pyruvate Kinase/Lactate Dehydrogenase Coupled Enzyme Assay
In the c-Abl Pyruvate Kinase (PK)/Lactate Dehydrogenase (LDH) Coupled Assay the protein kinase dependant phosphorylation of a substrate peptide was coupled to the oxidation of NADH. The oxidation of NADH to NAD+ was detected by monitoring a decrease in absorbance at 340 nm.
Materials: Abl substrate peptide=EAIYAAPFAKKK SEQ ID NO:1)-OH (Biopeptide, San Diego, Calif.); βNADH (Sigma Cat#N-8129, FW=709.4); 2M MgCl2; 1M HEPES buffer, pH 7.5; Phosphoenolpyruvate (PEP) (Sigma Cat#P-7002, FW=234); Lactate dehydrogenase (LDH) (Worthington Biochemical Cat#2756); Pyruvate Kinase (PK) (Sigma Cat#P-9136); ATP (Sigma Cat#A-3377, FW=551); Greiner 384-well UV star plate; and purified and unphosphorylated T315I Abl kinase domain.
Stock Solutions: 10 mM NADH (7.09 mg/ml in miliQH2O) made fresh daily; 10 mM Abl substrate peptide (13.4 mg/ml in miliQH2O) stored at −20° C.; 100 mM HEPES buffer, pH 7.5 (5 ml IM stock+45 ml miliQH2O); 100 mM MgCl2 (5 ml 2M MgCl2+95 ml dH2O); 100 mM PEP (23.4 mg/ml in dH2O) stored at −20° C.; 10 mM ATP (5.51 mg/ml in dH2O) stored at −20° C. (diluted 50 μl into total of 10 ml miliQH2O daily=50 μM ATP working stock); 1000 U/ml PK (U/mg varies with lot) flash-frozen under liquid N2 and stored at −80° C.; and 1000 U/ml LDH (U/mg varies with lot) flash-frozen under liquid N2 and stored at −80° C.
Standard Assay Setup for 384-well format (50 μl reaction): 300 μM NADH; 10 mM MgCl2; 2 mM PEP; 45 U/ml PK; 60 U/ml LDH; 200 μM Abl substrate peptide; 2.5 μl test compound (in DMSO); 2 μg/ml Abl kinase domain; 10 μM ATP; 100 mM HEPES buffer. Positive controls contained DMSO with no test compound. Negative controls contained 5 μl of 0.5M EDTA (50 mM in the assay). The dephosphorylated form of the c-Abl T315I mutant was used in the biochemical screening assays. The kinase reaction was initiated at time t=0 by the addition of ATP.
Activity was measured by following the time-dependent loss of NADH by absorbance spectroscopy at 340 nm. The linear portion of the resulting progress curve was then analyzed by linear regression to get the activity in absorbance units/time, reported as the slope of that best fit line (moles/unit time can be calculated from using molar extinction coefficient for NADH at 340 nm, 6250M^−1cm^−1).
Data was evaluated using the equation: Z′=1-[3*(σ++σ−)/|μ+−μ−|] (Zhang, et al., 1999 J Biomol Screening 4(2) 67-73), where […] the mean and σ the standard deviation. The subscript designates positive or negative controls. The Z′ score for a robust screening assay should be 0.50. The typical threshold=μ+−3*σ+. Any value that falls below the threshold was designated a “hit”.
Dose response was analyzed using the equation: y=min+{(max−min)/(1+10^[compound]-logIC50)}, where y is the observed initial slope, max=the slope in the absence of inhibitor, min=the slope at infinite inhibitor, and the IC50 is the [compound] that corresponds to ½ the total observed amplitude (Amplitude=max−min).
To measure modulation, activation, or inhibition of Abl KD, a test compound was added to the assay at a range of concentrations. Inhibitors may inhibit Abl KD activity at an IC50 in the micromolar range, the nanomolar range, or, for example, in the subnanomolar range.

SMILES	IC50 [µM]
COc1ccccc1-c1n[nH]c2ncc(-c3cnc4[nH]n(C)c(=O)c4c3)cc12	< 1
COc1cc(-c2cnc3[nH]nc(-c4ccccc4)c3c2)ccc1O	< 1
COc1ccccc1-c1n[nH]c2ncc(-c3cccnc3)cc12	< 1
COc1ccccc1-c1c[nH]c2ncc(-c3cccc(C(=O)N(C)C)c3)nc12	< 1
COc1ccccc1-c1n[nH]c2ncc(-c3cccc(C(=O)N(C)C)c3)cc12	< 1
COc1ccccc1-c1n[nH]c2ncc(-c3ccc(C(=O)NC4CC4)cc3)cc12	< 1
Oc1cccc(-c2cnc3[nH]nc(-c4ccccc4)c3c2)c1	< 1
COc1cc(-c2cnc3[nH]cc(-c4ccc(C)cc4)c3n2)ccc1O	< 1
COc1ccccc1-c1cnc2[nH]nc(-c3ccccc3OC)c2c1	< 1
COc1ccccc1-c1n[nH]c2ncc(-c3ccc(C(=O)N4CCN(C)CC4)cc3)cc12	< 1
c1ccc(-c2n[nH]c3ncc(-c4ccc5[nH]ccc5c4)cc23)cc1	< 1
COc1ccccc1-c1n[nH]c2ncc(-c3cccc(C(=O)NC(C)C)c3)cc12	< 1
c1ccc(-c2n[nH]c3ncc(-c4cccnc4)cc23)cc1	< 1
COc1ccccc1-c1n[nH]c2ncc(Br)cc12	< 1
COc1ccccc1-c1n[nH]c2ncc(-c3cccc(S(=O)(=O)NC4CC4)c3)cc12	< 1

Continued, values first:

IC50 [µM]	SMILES
< 1	COc1c(F)cccc1-c1n[nH]c2ncc(-c3cccc(C(=O)N4CCOCC4)c3)cc12
< 1	Cc1ccsc1-c1n[nH]c2ncc(-c3cccc(C(=O)N4CCOCC4)c3)cc12
< 1	COc1ccccc1-c1n[nH]c2ncc(-c3ccc(O)c(C(=O)N4CCOCC4)c3)cc12
< 1	COc1ccccc1-c1n[nH]c2ncc(-c3cccc(C(=O)N4CCN(CCN(C)C)CC4)c3)cc12
< 1	O=C(c1cccc(-c2cnc3[nH]nc(-c4ccc5cc[nH]c5c4)c3c2)c1)N1CCOCC1
< 1	COc1ccccc1-c1n[nH]c2ncc(-c3ccc(C(=O)N4CCOCC4)cc3)cc12
< 1	Cn1ccc2cc(-c3n[nH]c4ncc(-c5cccc(C(=O)N6CCOCC6)c5)cc34)ccc21
< 1	O=C(c1cccc(-c2cnc3[nH]nc(-c4cccc5cccnc45)c3c2)c1)N1CCOCC1
< 1	CCN1CCN(C(=O)c2cccc(-c3cnc4[nH]nc(-c5cc(F)ccc5OC)c4c3)c2)CC1
< 1	O=C(c1cccc(-c2cnc3[nH]nc(-c4ccncc4Cl)c3c2)c1)N1CCOCC1
< 1	Cc1cc(F)ccc1-c1n[nH]c2ncc(-c3cccc(C(=O)N4CCOCC4)c3)cc12
< 1	COc1ncc(-c2n[nH]c3ncc(-c4cccc(C(=O)N5CCOCC5)c4)cc23)c(OC)n1
< 1	CCOc1ccccc1-c1n[nH]c2ncc(-c3cccc(C(=O)N4CCOCC4)c3)cc12
< 1	COc1ccccc1-c1n[nH]c2ncc(-c3cccc(C(=O)N4CCC(CO)CC4)c3)cc12
< 1	COc1ccccc1-c1n[nH]c2ncc(-c3cccc(C(=O)N4CCN(C)CC4)c3)cc12
< 1	COc1ccccc1-c1n[nH]c2ncc(-c3cccc(C(=O)N4CCCC4)c3)cc12
< 1	COc1ccccc1-c1n[nH]c2ncc(-c3ccc(C(=O)N4CCCCC4)cc3)cc12
< 1	CCc1ccccc1-c1n[nH]c2ncc(-c3cccc(C(=O)N4CCOCC4)c3)cc12
< 1	COc1ccccc1-c1n[nH]c2ncc(-c3ccc(C(=O)N4CCCC4)cc3)cc12
